IC50 data for 35 compounds are collected here from ChEMBL document CHEMBL1145638, “Discovery of a novel submicromolar inhibitor of the lymphoid specific tyrosine phosphatase” (Bioorg Med Chem Lett, 2008).

Some results are limits rather than exact numbers.

In this experiment the target is T1, Tyrosine-protein phosphatase non-receptor type 22 (Homo sapiens, UniProt Q9Y2R2).
T1 sequence (Q9Y2R2 whole entry): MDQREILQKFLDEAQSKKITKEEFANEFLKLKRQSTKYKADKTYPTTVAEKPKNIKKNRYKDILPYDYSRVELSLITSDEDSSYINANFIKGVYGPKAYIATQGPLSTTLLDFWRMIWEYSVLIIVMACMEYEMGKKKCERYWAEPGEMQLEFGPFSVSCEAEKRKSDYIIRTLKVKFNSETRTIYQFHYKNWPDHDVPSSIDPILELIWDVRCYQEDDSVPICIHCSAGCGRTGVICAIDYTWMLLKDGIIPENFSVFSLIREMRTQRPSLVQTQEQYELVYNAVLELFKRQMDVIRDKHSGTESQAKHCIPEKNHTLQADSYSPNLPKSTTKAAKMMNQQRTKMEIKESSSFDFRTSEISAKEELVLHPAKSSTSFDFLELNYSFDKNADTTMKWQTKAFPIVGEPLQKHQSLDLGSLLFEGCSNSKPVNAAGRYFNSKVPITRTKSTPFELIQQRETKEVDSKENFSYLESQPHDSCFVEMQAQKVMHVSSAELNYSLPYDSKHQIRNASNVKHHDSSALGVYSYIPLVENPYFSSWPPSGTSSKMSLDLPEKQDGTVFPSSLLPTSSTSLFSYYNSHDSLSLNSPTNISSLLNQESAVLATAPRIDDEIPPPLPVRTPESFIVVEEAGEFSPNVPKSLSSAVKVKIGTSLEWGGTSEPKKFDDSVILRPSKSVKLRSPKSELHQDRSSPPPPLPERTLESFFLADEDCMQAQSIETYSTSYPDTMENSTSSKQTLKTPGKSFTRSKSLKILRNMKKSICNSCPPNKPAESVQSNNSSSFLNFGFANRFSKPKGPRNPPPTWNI
Description: Inhibition of lymphoid specific tyrosine phosphatase.

In the case of `O=C(O)CN1C(=O)S/C(=C\c2ccc(-c3ccc(O)c(C(=O)O)c3)s2)C1=O`, the IC50 came to 2.8 µM. In other words, the single-digit micromolar range.

With `O=C1CN(/N=C/c2ccc(-c3ccc(O)c(C(=O)O)c3)o2)C(=O)N1`, the half-maximal inhibitory concentration (IC50) was above 44 µM.

The compound `COC(=O)CCN1C(=O)S/C(=C\c2ccc(-c3ccc(O)c(C(=O)OC)c3)o2)C1=O` had an IC50 of 44 µM.

Regarding `COC(=O)CCN1C(=O)S/C(=C\c2ccc(-c3ccc(O)c(C(=O)OC)c3)s2)C1=O`, the IC50 was above 44 µM.

With `O=C(O)CN1C(=O)CN(/N=C/c2ccc(-c3ccc(O)c(C(=O)O)c3)o2)C1=O`, 36 µM corresponded to half-maximal inhibition (IC50).

Compound `O=C(O)CCN1C(=O)S/C(=C\c2ccc(-c3ccc(O)c(C(=O)O)c3)o2)C1=O` had a 50% inhibitory concentration (IC50) of 5.1 µM.

`COC(=O)CN1C(=O)S/C(=C\c2ccc(-c3ccc(O)c(C(=O)OC)c3)s2)C1=O` showed an IC50 above 44 µM.

Consider `O=C(O)C(Cc1ccccc1)N1C(=O)/C(=C/C2=c3ccccc3=CCC2)SC1=S` (stereo not given), for which the concentration for half-maximal inhibition (IC50) turned out to be 14 µM. This counts as double-digit micromolar.

With `COC(=O)CN1C(=O)S/C(=C\c2ccc(-c3ccc(O)c(C(=O)O)c3)s2)C1=O`, the IC50 came out at 1.8 µM.

Regarding `COC(=O)c1cc(-c2ccc(/C=N/N3CC(=O)NC3=O)s2)ccc1O`, the IC50 is above 44 µM.

`CC(C(=O)O)N1C(=O)/C(=C/C=C/c2ccco2)SC1=S` (stereo not given) registered a half-maximal inhibitory concentration (IC50) of 2.5 µM. This counts as single-digit micromolar.

On to `Cc1ccccc1NC(=O)CN1C(=O)S/C(=C\c2cccn2-c2cccc(C(=O)O)c2)C1=O`, for which the IC50 is 1.9 µM.

As for `Cc1ccc(NC(=O)CN2C(=O)S/C(=C\c3cccn3-c3cccc(C(=O)O)c3)C2=O)c(C)c1`, the half-maximal inhibitory concentration (IC50) was 1 µM.

For the compound `O=C(O)CN1C(=O)S/C(=C\c2ccc(-c3ccc(O)c(C(=O)O)c3)o2)C1=O`, half-maximal inhibition (IC50) required 5.6 µM.

As to `O=C(O)CCN1C(=O)S/C(=C\c2ccc(-c3ccc(O)c(C(=O)O)c3)s2)C1=O`, the half-maximal inhibitory concentration (IC50) came to 5.9 µM. This IC50 and that of the compound before are within 1.5-fold of each other.

`CC(C)C(C(=O)O)N1C(=O)/C(=C/C=C/c2ccco2)SC1=S` (stereo not given) yielded a half-maximal inhibitory concentration (IC50) of 1.9 µM.

`COC(=O)c1cc(-c2ccc(/C=C3\SC(=O)N(CC(=O)O)C3=O)o2)ccc1O` displayed an IC50 above 44 µM.

As to `COC(=O)c1cc(-c2ccc(/C=C3\SC(=O)N(CC(=O)O)C3=O)s2)ccc1O`, the half-inhibitory concentration (IC50) was found to be 18 µM.

In the case of `O=C(O)CN1C(=O)/C(=C/c2ccc(-c3ccc(O)c(C(=O)O)c3)s2)SC1=S`, the half-inhibitory concentration (IC50) was determined as 5.4 µM.

`Cc1cccc(C)c1NC(=O)CN1C(=O)S/C(=C\c2cccn2-c2cccc(C(=O)O)c2)C1=O` yielded a concentration for half-maximal inhibition (IC50) of 4.8 µM.

On to `COC(=O)CN1C(=O)S/C(=C\c2ccc(-c3ccc(O)c(C(=O)O)c3)o2)C1=O`, for which half-maximal inhibition (IC50) was put at 4.8 µM.

`COC(=O)c1cc(-c2ccc(/C=C3\SC(=S)N(CC(=O)O)C3=O)o2)ccc1O` gave a concentration for half-maximal inhibition (IC50) of 21 µM.

`COC(=O)CN1C(=O)S/C(=C\c2ccc(-c3ccc(O)c(C(=O)OC)c3)o2)C1=O` had an IC50 above 44 µM.

As to `O=C1CN(/N=C/c2ccc(-c3ccc(O)c(C(=O)O)c3)s2)C(=O)N1`, the half-inhibitory concentration (IC50) was found to be 34 µM.

Consider `COC(=O)c1cc(-c2ccc(/C=C3\SC(=O)N(CCC(=O)O)C3=O)o2)ccc1O`, for which the IC50 was 4.3 µM.

The compound `O=C(O)CN1C(=O)CN(/N=C/c2ccc(-c3ccc(O)c(C(=O)O)c3)s2)C1=O` displayed a half-maximal inhibitory concentration (IC50) above 44 µM.

Consider `O=C(O)COc1ccc(-c2ccc(/C=C3\SC(=S)N(CC(=O)O)C3=O)o2)cc1C(=O)O`, for which the concentration for half-maximal inhibition (IC50) was above 44 µM.

In turn, `COC(=O)c1cc(-c2ccc(/C=C3\SC(=S)N(CC(=O)O)C3=O)s2)ccc1O` registered an IC50 of 4.3 µM. In other words, the single-digit micromolar range.

`COC(=O)c1cc(-c2ccc(/C=N/N3CC(=O)NC3=O)o2)ccc1O`: the 50% inhibitory concentration (IC50) is above 44 µM.

Turning to `O=C(O)CCN1C(=O)/C(=C\c2ccc(-c3nc4ccccc4s3)o2)SC1=S`, the IC50 is 0.98 µM.

Regarding `O=C(O)CN1C(=O)/C(=C/c2ccc(-c3ccc(O)c(C(=O)O)c3)o2)SC1=S`, the IC50 is 8.7 µM. Against the preceding compound, the IC50 is about 8.9-fold higher.

`COC(=O)c1cc(-c2ccc(/C=C3\SC(=O)N(CCC(=O)O)C3=O)s2)ccc1O` showed an IC50 of 0.39 µM.

On to `O=C(O)CCCN1C(=O)/C(=C\c2ccc(-c3nc4ccccc4s3)o2)SC1=S`, for which the concentration for half-maximal inhibition (IC50) was 1.3 µM.

The compound `Cc1ccc(NC(=O)CN2C(=O)S/C(=C\c3ccc(-c4cccc(C(=O)O)c4C)o3)C2=O)cc1` (stereo in doubt; form 1) displayed an IC50 of 3.3 µM.

The compound `Cc1ccc(NC(=O)CN2C(=O)S/C(=C\c3ccc(-c4cccc(C(=O)O)c4C)o3)C2=O)cc1` (stereo in doubt; form 2) yielded an IC50 of 3.5 µM.
